Laboratory results as given in patent US4182896A, “Indane derivatives” (Societe Hexachimie, priority 1974, dated 1980).
Structures can show the parent of a compound that is named as a salt.

Key:
Solubility in water = assay type: physicochemical; conditions: white powder, sodium salt
[1] = system: male mice (SPF1, OF1 strain); assay: Analgesic activity: inhibition of pain reactions (abdominal twistings) after intraperitoneal phenylbenzoquinone, oral administration; assay type: in vivo; conditions: for inhibition in vivo at 64 mg/kg: 64 mg/kg oral; for ED50: read-out: ED50 (50% effective dose), analgesic; for inhibition in vivo at 4 mg/kg: 4 mg/kg oral
Protocol: The products tested are administered orally to batches of 6 male mice (SPF1, OF1 strain) weighing 19-20 g.
1 hour later, 0.3 ml of a 0.02% strength solution of phenylbenzoquinone is injected intraperitoneally into each mouse and, from the 5th to the 10th minute after the latter treatment, the number of pain reactions (abdominal twistings) is counted.
Table V to VIII below give the percentage inhibition of these reactions.

[2] = system: SPF male rats, OFA strain; assay: Anti-inflammatory activity: paw swelling after subcutaneous plantar injection of carraghenine, oral administration; assay type: in vivo; conditions: for inhibition in vivo at 256 mg/kg: 256 mg/kg oral; for ED50: read-out: ED50 (50% effective dose), anti-inflammatory; for inhibition in vivo at 4 mg/kg: 4 mg/kg oral
Protocol: Anti-inflammatory activity
The products to be tested are administered orally to batches of 12 SPF male rats, OFA strain, weighing 120-130 g, 2 hours and 30 minutes (1/2 dose each time) before the subcutaneous plantar injection of 0.05 ml of a 1% strength solution of carraghenine. The volume of the back paw which received the phlogogenic agent is measured at regular intervals. The 50% effective dose is calculated at the moment of greatest swelling of the controls.
The results are given in Tables I to IV below, in which the percentage reduction in the inflammation is noted.

[3] = Mus musculus, po, 8 mg/kg oral, read-out: percentage inhibition of pain reactions
[4] = Mus musculus, po, 16 mg/kg oral, read-out: percentage inhibition of pain reactions
[5] = Mus musculus, po, 32 mg/kg oral, read-out: percentage inhibition of pain reactions
[6] = Mus musculus, po, read-out: percentage inhibition of pain reactions
[7] = Rattus norvegicus, po, 16 mg/kg oral, carraghenine, read-out: percentage reduction in the inflammation
[8] = Rattus norvegicus, po, 32 mg/kg oral, carraghenine, read-out: percentage reduction in the inflammation
[9] = Rattus norvegicus, po, 64 mg/kg oral, carraghenine, read-out: percentage reduction in the inflammation
[10] = Rattus norvegicus, po, 128 mg/kg oral, carraghenine, read-out: percentage reduction in the inflammation
[11] = Rattus norvegicus, po, carraghenine, read-out: percentage reduction in the inflammation
[12] = Rattus norvegicus, po, at the moment of greatest swelling of the controls
[13] = Mus musculus, po, 128 mg/kg oral, read-out: percentage inhibition of pain reactions
[14] = Mus musculus, po, 256 mg/kg oral, read-out: percentage inhibition of pain reactions
[15] = 16 mg/kg oral, rat, carraghenine

Row | Compound | inhibition in vivo at 8 mg/kg [1, 3] | inhibition in vivo at 16 mg/kg [1, 4] | inhibition in vivo at 32 mg/kg [1, 5] | inhibition in vivo at 64 mg/kg [1, 6] | ED50 ([1]; Mus musculus, po) | inhibition in vivo at 16 mg/kg [2, 7] | inhibition in vivo at 32 mg/kg [2, 8] | inhibition in vivo at 64 mg/kg [2, 9] | inhibition in vivo at 128 mg/kg [2, 10] | inhibition in vivo at 256 mg/kg [2, 11] | ED50 [2, 12] | inhibition in vivo at 128 mg/kg [1, 13] | inhibition in vivo at 256 mg/kg [1, 14] | inhibition in vivo at 4 mg/kg [2, 11] | other results
1 | CC(C(=O)O)c1ccc2c(c1)CC(C(C)C)C2 (centres unmarked) [Example 31, Sodium salt of 2-methyl-[2-isopropyl-indanyl-(5)]-acetic acid] |  |  |  |  |  |  |  |  |  |  |  |  |  |  | solubility in water (Solubility in water): soluble in water
2 | CC1Cc2ccc(C(C)C(=O)O)cc2C1 (centres unmarked) [Example 15, Sodium salt of 2-methyl-[2-methyl-indanyl-(5)]-acetic acid] | 14% | 18% | 68% | 91% | 23 mg/kg | 11% | 20% | 27% | 41% | 68% | 160 mg/kg |  |  |  | solubility in water (Solubility in water): soluble in water; inhibition in vivo at 512 mg/kg ([2]; Rattus norvegicus, po, 512 mg/kg oral, carraghenine, read-out: percentage reduction in the inflammation): 72%
3 | CC1Cc2ccc(CC(=O)O)cc2C1 (centres unmarked) [Example 12, [2-Methyl-indanyl-(5)]-acetic acid] |  |  | 9% | 20% | 175 mg/kg | 15% | 23% | 49% | 71% | 80% | 70 mg/kg | 46% | 67% |  | inhibition in vivo at 512 mg/kg ([1]; Mus musculus, po, 512 mg/kg oral, read-out: percentage inhibition of pain reactions): 75%
4 | CCN(CC)CCOC(=O)C(C)c1ccc2c(c1)CC(C(C)C)C2 (centres unmarked) [Example 28, Oxalate of the diethylaminoethyl ester of 2-methyl-[2-isopropylindanyl-(5)]-acetic acid] | 20% | 40% | 66% | 86% | 20 mg/kg | 31% |  | 66% | 72% | 79% | 24 mg/kg |  |  | 37% | inhibition in vivo at 4 mg/kg [1, 6]: 21%
5 | CC(C(=O)OCCN1CCCC1)c1ccc2c(c1)CC(C(C)C)C2 (centres unmarked) [Example 32, Maleate of the pyrrolidino-ethyl ester of 2-methyl-[2-isopropyl-indanyl-(5)]-acetic acid] | 6% | 47% | 79% | 99% | 18 mg/kg | 21% |  | 59% | 55% |  | 65 mg/kg |  |  | 19% | 
6 | CC1CC(C)c2cc(CC(=O)O)c(Cl)cc21 (centres unmarked) [Example 3, [6-Chloro-1,3-dimethyl-indanyl-(5)]-acetic acid] |  | 33% | 51% | 66% | 33 mg/kg |  |  | 24% | 36% | 56% | 200 mg/kg | 66% | 94% |  | 
7 | CC1CC(C)c2cc(CC(=O)O)ccc21 (centres unmarked) [Example 1, [1,3-Dimethyl-indanyl-(5)]-acetic acid] |  | 25% | 28% | 67% | 43 mg/kg |  |  | 15% | 42% | 88% | 130 mg/kg | 89% | 94% |  | 
8 | CC(C(=O)OCCN1CCCCC1)c1ccc2c(c1)CC(C(C)C)C2 (centres unmarked) [Example 30, Oxalate of the piperidine-ethyl ester of 2-methyl-[2-isopropyl-indanyl-(5)]-acetic acid] |  | 11% | 32% | 73% | 37 mg/kg | 32% |  | 55% | 47% | 52% |  | 99% |  | 10% | 
9 | CC(C(=O)O)c1ccc2c(c1)CC(C(C)C)C2 (centres unmarked) [Example 19, Dimethylaminoethanol salt of 2-methyl-[2-isopropyl-indanyl-(5)]-acetic acid] |  |  |  | 96% |  |  |  |  |  | 82% |  |  |  | 25% | percentage inhibition of pain reactions ([1]; 8 mg/kg oral, mouse): 31%; percentage inhibition of pain reactions ([1]; 16 mg/kg oral, mouse): 54%; percentage inhibition of pain reactions ([1]; 32 mg/kg oral, mouse): 82%; inhibition in vivo at 4 mg/kg [1, 6]: 5%; ED50 (50% effective dose), analgesic ([1]; oral, mouse): 14 mg/kg; percentage reduction in the inflammation ([2]; 8 mg/kg oral, rat, carraghenine): 20%; percentage reduction in the inflammation [2, 15]: 44%; percentage reduction in the inflammation ([2]; 32 mg/kg oral, rat, carraghenine): 48%; percentage reduction in the inflammation ([2]; 64 mg/kg oral, rat, carraghenine): 63%; percentage reduction in the inflammation ([2]; 128 mg/kg oral, rat, carraghenine): 67%; ED50 (50% effective dose), anti-inflammatory ([2]; oral, rat, at the moment of greatest swelling of the controls): 30 mg/kg
10 | CC(C(=O)OCCN1CCOCC1)c1ccc2c(c1)CC(C(C)C)C2 (centres unmarked) [Example 9, Morpholino-ethyl ester of 2-methyl-[2-isopropyl-indanyl-(5)]-acetic acid] |  |  | 28% | 26% | 78 mg/kg | 47% | 68% | 80% |  |  | 17 mg/kg | 79% | 97% |  | 
11 | CC(C(=O)O)c1ccc2c(c1)CC(C(C)C)C2 (centres unmarked) [Example 7, 2-Methyl-[2-Isopropyl-indanyl-(5)]-acetic acid] | 17% | 61% | 96% |  | 14 mg/kg | 43% | 61% | 73% | 75% |  | 22 mg/kg |  |  |  | inhibition in vivo at 8 mg/kg ([2]; Rattus norvegicus, po, 8 mg/kg oral, carraghenine, read-out: percentage reduction in the inflammation): 29%
12 | CCC(C(=O)O)c1ccc2c(c1)CC(C(C)C)C2 (centres unmarked) [Example 20, Dimethylaminoethanol salt of 2-ethyl-[2-isopropyl-indanyl-(5)]-acetic acid] |  |  | 26% |  | 175 mg/kg |  | 24% | 25% | 38% | 37% | > 256 mg/kg |  |  |  | percentage inhibition of pain reactions ([1]; 128 mg/kg oral, mouse): 27%; percentage inhibition of pain reactions ([1]; 256 mg/kg oral, mouse): 74%; percentage inhibition of pain reactions ([1]; 512 mg/kg oral, mouse): 100%; percentage reduction in the inflammation [2, 15]: 16%
